From ChEMBL document CHEMBL1153295, “Stereoselective synthesis of 15- and 16-substituted isosteviol derivatives and their cytotoxic activities” (Bioorg Med Chem Lett, 2009)
Activity calls are given as the source filed them. The calls are words filed in the database; no cut-off is given here.

Tested on: B16-F10
Experiment: Cytotoxicity against mouse B16F10 cells after 48 hrs by MTT assay
Assay type: functional, cell-based
Conditions: B16-F10, 48 h

How did the IC50 turn out when `CCOC(=O)[C@]1(C)CCC[C@@]2(C)[C@@H]3CC[C@@]4(C)C[C@]3(CC[C@@H]21)[C@@H]1CN(c2ccc([N+](=O)[O-])cc2)N=C14` was run?
Its IC50 is 21 µM.

For `CCOC(=O)[C@]1(C)CCC[C@@]2(C)[C@@H]3CC[C@@]4(C)C[C@]3(CC[C@@H]21)C[C@H]4O`, which IC50 is on record?
The IC50 was 58 µM.

`CCOC(=O)[C@]1(C)CCC[C@@]2(C)[C@@H]3CC[C@@]4(C)C[C@]3(CC[C@@H]21)[C@H](COC(=O)c1cccnc1)[C@H]4O` was tested. Which IC50 did it give?
Its IC50 is 25 µM.

How did the IC50 turn out when `CCOC(=O)[C@]1(C)CCC[C@@]2(C)[C@@H]3CC[C@@]4(C)C[C@]3(CC[C@@H]21)[C@H](COC(=O)c1cccnc1)[C@H]4OC(=O)c1cccnc1` was run?
The IC50 was 22 µM.

How did the IC50 turn out when `CCOC(=O)[C@]1(C)CCC[C@@]2(C)[C@@H]3CC[C@@]4(C)C[C@]3(CC[C@@H]21)[C@H](CO)[C@H]4O` was run?
Its IC50 is 68 µM.

With `C=C[C@]12CC[C@H]3[C@@](C)(CCC[C@@]3(C)C(=O)OCC)[C@@H]1CC[C@](C)(C=N)C2` as the compound, how does the IC50 read?
Its IC50 is 27.5 µM.

`CCOC(=O)[C@]1(C)CCC[C@@]2(C)[C@@H]3CC[C@@]4(C)C[C@]3(CC[C@@H]21)[C@@H]1CON[C@@H]14` was tested. Which IC50 did it give?
Its IC50 is 15 µM.

For `C=C[C@]12CC[C@H]3[C@@](C)(CCC[C@@]3(C)C(=O)OCC)[C@@H]1CC[C@](C)(CO)C2`, which IC50 is on record?
Its IC50 is 24 µM.

Which IC50 does the source give for `CCOC(=O)[C@]1(C)CCC[C@@]2(C)[C@@H]3CC[C@@]4(C)C[C@]3(CC[C@@H]21)c1cn(-c2ccccc2)nc14` here?
Its IC50 is 19 µM.

`C=C[C@]12CC[C@H]3[C@@](C)(CCC[C@@]3(C)C(=O)OCC)[C@@H]1CC[C@](C)(O)C2` was tested. Which IC50 did it give?
The IC50 was 26 µM.

Tested on: B16-F10
Experiment: Cytotoxicity against mouse B16F10 cells at 100 uM after 48 hrs by MTT assay
Assay type: functional
Conditions: not given

`C=C[C@]12CC[C@H]3[C@@](C)(CCC[C@@]3(C)C(=O)OCC)[C@@H]1CC[C@](C)(C=O)C2` was tested. Which inhibition did it give?
Its inhibition is “inactive”.

Which inhibition does the source give for `CCOC(=O)[C@]1(C)CCC[C@@]2(C)[C@@H]3CC[C@@]4(C)C[C@]3(CC[C@@H]21)CC4=O` here?
Its inhibition is “inactive”.

Which inhibition does the source give for `C=C[C@]12CC[C@H]3[C@@](C)(CCC[C@@]3(C)C(=O)OCC)[C@@H]1CC[C@](C)(C(=O)O)C2` here?
Its inhibition is “inactive”.

With `CCOC(=O)[C@]1(C)CCC[C@@]2(C)[C@@H]3CC[C@@]4(C)C[C@]3(CC[C@@H]21)[C@@H]1CO[C@H]4O1` as the compound, how does the inhibition read?
Its inhibition is “inactive”.

How did the inhibition turn out when `C[C@]12CC[C@H]3[C@]4(C)CCC[C@@](C)(C(=O)O)[C@H]4CC[C@@]3(C1)[C@H](CO)[C@H]2O` was run?
Its inhibition is “inactive”.

With `C[C@@]12CC[C@@H]3[C@@](CC[C@H]4[C@@]3(C)CCC[C@@]4(C)C(=O)O)(C[C@H]1O)C2` as the compound, how does the inhibition read?
The inhibition was “inactive”.

`CCOC(=O)[C@]1(C)CCC[C@@]2(C)[C@@H]3CC[C@@]4(C)C[C@]3(CC[C@@H]21)[C@H](CO[N+](=O)[O-])[C@H]4O[N+](=O)[O-]` was tested. Which inhibition did it give?
Its inhibition is “inactive”.

`C[C@@]12CC[C@@H]3[C@@](CC[C@H]4[C@@]3(C)CCC[C@@]4(C)C(=O)O)(CC1=O)C2` was tested. Which inhibition did it give?
Its inhibition is “inactive”.

`CCOC(=O)[C@]1(C)CCC[C@@]2(C)[C@@H]3CC[C@@]4(C)C[C@]3(CC[C@@H]21)[C@@H]1CON(C)[C@@H]14` was tested. Which inhibition did it give?
Its inhibition is “inactive”.

For `C=CC(=O)O[C@@H]1C[C@]23CC[C@H]4[C@@](C)(CCC[C@@]4(C)C(=O)OCC)[C@@H]2CC[C@@]1(C)C3`, which inhibition is on record?
The inhibition was “inactive”.

Same assay, conditions: B16-F10, 48 h

With `C=C[C@]12CC[C@H]3[C@@](C)(CCC[C@@]3(C)C(=O)OCC)[C@@H]1CC[C@](C)(CN)C2` as the compound, how does the inhibition at 100 µM read?
Its inhibition at 100 µM is 34.3%.
